Data from patent publication US20140350049A1, “METHODS AND PHARMACEUTICAL COMPOSITIONS FOR THE TREATMENT OF DARIER DISEASE” (INSERM (INSTITUT NATIONAL DE LA SANTE ET DE LA RECHERCHE …, priority 2011, published 2014).

How the values were obtained:
Format in all cases: cell-based, human
[1] = system: Darier keratinocytes (DK); assay: ER morphology in chaperone-treated Darier keratinocytes (immunofluorescence); conditions: DK pre-treated 24 h with PBA 5 mM or Miglustat 500 μM
Procedure: (§1) Treatments with drugs. For ER stress induction, keratinocytes grown in high Ca^2+ (1.2 mM) medium were incubated with thapsigargin (TG, Sigma) at 1 μM for different time periods. For inhibition of SERCA pump in NK, keratinocytes were pretreated with 100 nM of TG for 30 min in low Ca^2+ (0.06 mM) medium. Medium was removed, and cells were incubated in high Ca^2+ (1.2 mM) medium for an additional 4 hours to induce the formation of cell-cell contacts.
(§2) Immunofluorescence. Keratinocytes were cultured on coverslips, fixed with 4% paraformaldehyde for 30 minutes at room temperature, and permeabilized with 0.2% TritonX-100 in PBS for 10 minutes. After blocking with 1% fetal bovine serum in PBS, cells were incubated with primary antibodies at 4° C. overnight. Subsequently, cells were incubated with the appropriate Alexa-conjugated secondary antibody at room temperature for 1 hour. […]
(§3) Quantification of intracellular compartment volumes and co-localization. For volume quantifications, all Z-series reconstructions were imaged with a pinhole of 1 Airy Unit with an optimal Z-step. […] Each isosurfaced was selected and the volume statistic recorded. Quantification of the co-localization signals was performed using the Metamorph (Molecular Devices) software. In a single optical section, the surface of the red signal (E-cadherin) that merges with a green signal (Calnexin) was calculated.

[2] = system: Darier keratinocytes (DK); assay: E-cadherin and SERCA2 expression in chaperone-treated Darier keratinocytes; conditions: DK treated with PBA or Miglustat
Procedure: Treatments with drugs. For ER stress induction, keratinocytes grown in high Ca^2+ (1.2 mM) medium were incubated with thapsigargin (TG, Sigma) at 1 μM for different time periods. For inhibition of SERCA pump in NK, keratinocytes were pretreated with 100 nM of TG for 30 min in low Ca^2+ (0.06 mM) medium. Medium was removed, and cells were incubated in high Ca^2+ (1.2 mM) medium for an additional 4 hours to induce the formation of cell-cell contacts. […] Western-Blot. Keratinocytes were lysed in buffer containing 50 mM Tris (pH8), 120 mM NaCl, 0.5% NP-40, Complete™ protease inhibitors cocktail (Roche) and phosphatase inhibitor cocktail 2 (Sigma) for 30 minutes on ice and pelleted by centrifugation. The supernatant was collected for the quantification of protein amount by the Bradford assay. Equal amounts of soluble protein were added to Laemmli buffer (62.5 mM Tris HCl, pH 6.8, 5% ®-mercaptoethanol, 2% SDS, 10% glycerol, and 0.002% bromophenol blue). Samples were separated by SDS-PAGE and transferred onto Hybond-C extra membrane (GE Healthcare). β-actin immunodetection was used as a loading control. Blots were developed by chemiluminescence (ECL Advance, GE Healthcare or SuperSignal West Dura, Pierce).

[3] = system: Darier keratinocytes (DK); assay: Adherens junction formation in chaperone-treated Darier keratinocytes (immunofluorescence); conditions: for F-actin network organisation / cell shape (polygonal phenotype, characteristic of cell-to-cell adhesion) / staining of AJ components (E-cadherin and catenins) at the plasma membrane: DK pre-treated 24 h with PBA 5 mM or Miglustat 500 μM; for staining of AJ components (E-cadherin and catenins) at the plasma membrane: then 1.2 mM Ca2+
Procedure: (§4) Cell Culture. Keratinocytes were grown in 0.06 mM CaCl2 EpiLife medium (Invitrogen) to 60-80% confluence and then incubated in 1.2 mM CaCl2 EpiLife medium for 4 hours to induce formation of cell-cell contacts. […] Treatments with drugs. For ER stress induction, keratinocytes grown in high Ca^2+ (1.2 mM) medium were incubated with thapsigargin (TG, Sigma) at 1 μM for different time periods. For inhibition of SERCA pump in NK, keratinocytes were pretreated with 100 nM of TG for 30 min in low Ca^2+ (0.06 mM) medium. Medium was removed, and cells were incubated in high Ca^2+ (1.2 mM) medium for an additional 4 hours to induce the formation of cell-cell contacts. […] Immunofluorescence. Keratinocytes were cultured on coverslips, fixed with 4% paraformaldehyde for 30 minutes at room temperature, and permeabilized with 0.2% TritonX-100 in PBS for 10 minutes. After blocking with 1% fetal bovine serum in PBS, cells were incubated with primary antibodies at 4° C. overnight. Subsequently, cells were incubated with the appropriate Alexa-conjugated secondary antibody at room temperature for 1 hour. For actin staining, cells were incubated with phalloidin-TRITC at room temperature for 1 hour. Lastly, coverslips were mounted on glass slides using Vectashield Hard set (Vector laboratories) and examined using a Zeiss LSM 710 confocal microscope with a 40 Plan-Apochromat objective (1.3 oil) or a 63 Plan-Apochromat objective (1.4 oil), together with a 2× zoom.

[4] = system: Darier keratinocytes (DK); assay: ER stress response (eIF2α and IRE1 phosphorylation, Western-Blot) in Darier keratinocytes; conditions: for TG-induced eIF2α phosphorylation: DK pre-treated 24 h with PBA 5 mM or Miglustat 500 μM
Procedure: (§5) Cell Culture. Keratinocytes were grown in 0.06 mM CaCl2 EpiLife medium (Invitrogen) to 60-80% confluence and then incubated in 1.2 mM CaCl2 EpiLife medium for 4 hours to induce formation of cell-cell contacts.
as §1
(§6) Western-Blot. Keratinocytes were lysed in buffer containing 50 mM Tris (pH8), 120 mM NaCl, 0.5% NP-40, Complete™ protease inhibitors cocktail (Roche) and phosphatase inhibitor cocktail 2 (Sigma) for 30 minutes on ice and pelleted by centrifugation. The supernatant was collected for the quantification of protein amount by the Bradford assay. Equal amounts of soluble protein were added to Laemmli buffer (62.5 mM Tris HCl, pH 6.8, 5% ®-mercaptoethanol, 2% SDS, 10% glycerol, and 0.002% bromophenol blue). Samples were separated by SDS-PAGE and transferred onto Hybond-C extra membrane (GE Healthcare). β-actin immunodetection was used as a loading control. Blots were developed by chemiluminescence (ECL Advance, GE Healthcare or SuperSignal West Dura, Pierce).

[5] = system: normal keratinocytes (NK); assay: ER volume and cell spreading in TG-treated normal keratinocytes (immunofluorescence, volume quantification); conditions: TG-treated NK compared to untreated NK
Procedure: as §1, §2, §3

[6] = system: normal keratinocytes (NK); assay: Adherens junction formation in TG-pretreated normal keratinocytes (immunofluorescence); conditions: TG-pretreated NK (100 nM, 30 min) cultured in 1.2 mM Ca2+ for 4 hours
Procedure: as §4, with “Lastly, coverslips were mounted on glass slides using Vectashield Hard set (Vector laboratories) and examined using a Zeiss LSM 710 confocal microscope with a 40 Plan-Apochromat objective (1.3 oil) or a 63 Plan-Apochromat objective (1.4 oil), together with a 2× zoom.” left out

[7] = system: normal keratinocytes (NK); assay: E-cadherin retention in the ER (co-localization with calnexin) in TG-treated normal keratinocytes
Procedure: as §1, §2, §3

[8] = system: normal keratinocytes (NK); assay: ER stress response (eIF2α phosphorylation, Western-Blot) in normal keratinocytes; conditions: TG 1 μM, high Ca2+ (1.2 mM) medium
Procedure: as §5, §1
as §6, with “Blots were developed by chemiluminescence (ECL Advance, GE Healthcare or SuperSignal West Dura, Pierce).” left out

[9] = system: Darier keratinocytes (DK); assay: XBP1 mRNA splicing (RT-PCR) after TG treatment; conditions: DK compared to NK, TG 1 μM
Procedure: as §1
RT-PCR. RNA was isolated from keratinocytes using TRIzol (Invitrogen) and reverse transcribed using hexamer primers and Moloney murine leukemia virus RT. PCR amplification was performed.

CCCCN1C[C@H](O)[C@@H](O)[C@H](O)[C@H]1CO [Miglustat, 1,5-(butylimino)-1,5-dideoxy-D-glucitol]
ER expansion / perinuclear condensation of the ER [1]: Neither TG-induced eIF2α phosphorylation nor ER expansion were reduced | E-cadherin expression [2]: neither PBA nor Miglustat increased | SERCA2 expression [2]: neither PBA nor Miglustat increased | F-actin network organisation [3]: polymerization of the F-actin network | cell shape (polygonal phenotype, characteristic of cell-to-cell adhesion) [3]: all cells present a polygonal phenotype | staining of AJ components (E-cadherin and catenins) at the plasma membrane [3]: a narrow, intense, continuous pericellular staining of all AJ components at the plasma membrane | plasma membrane localization of E-cadherin ([3]; DK, lower concentration (100 μM)): increased plasma membrane localization of E-cadherin only in a limited number of cells | TG-induced eIF2α phosphorylation [4]: Neither TG-induced eIF2α phosphorylation nor ER expansion were reduced

CCCCN1C[C@H](O)[C@@H](O)[C@@H](O)[C@H]1CO [NB-DGJ]
effect on E-cadherin localization ([3]; DK, 500 μM, 24 h pre-treatment): had not effect

O=C(O)CCCc1ccccc1 [PBA, 4-phenylbutyric acid]
ER expansion / perinuclear condensation of the ER [1]: restored perinuclear condensation of the ER | E-cadherin expression [2]: neither PBA nor Miglustat increased | SERCA2 expression [2]: neither PBA nor Miglustat increased | F-actin network organisation [3]: cortical bundles of F-actin parallel and closer to the cell membrane | cell shape (polygonal phenotype, characteristic of cell-to-cell adhesion) [3]: acquired a pronounced polygonal shape | staining of AJ components (E-cadherin and catenins) at the plasma membrane [3]: a linear, sharp and more intense pericellular staining of E-cadherin and catenins | TG-induced eIF2α phosphorylation [4]: decreased

C/C=C(/C)C(=O)O[C@H]1C(C)=C2[C@H]([C@@H]1OC(=O)CCCCCCC)[C@@](C)(OC(C)=O)C[C@H](OC(=O)CCC)[C@@]1(O)[C@H]2OC(=O)[C@@]1(C)O [TG, thapsigargin]
number of confluent cells per microscopy field [5]: always smaller | ER volume ([5]; TG 100 nM 30 min): two-fold increase | adherens junction (E-cadherin, catenins, F-actin) organisation [6]: AJ abnormalities similar to those in DK | E-cadherin intracellular surface overlapping with the calnexin positive compartment [7]: significant E-cadherin retention in the ER | increase of phospho-eIF2α after exposure to thapsigargin [8]: 1.5 fold | spliced, active form of XBP1 mRNA after TG treatment [9]: increased in DK compared to NK | increase of phospho-eIF2α after exposure to thapsigargin ([4]; DK, TG 1 μM, high Ca2+ (1.2 mM) medium): 2- to 3 fold | IRE1 phosphorylation after exposure to thapsigargin ([4]; DK, TG 1 μM, extent higher than in NK): increased
